Source: PMC10787790, “Isatin-tethered halogen-containing acylhydrazone derivatives as monoamine oxidase inhibitor with neuroprotective effect” (Scientific Reports, 2024)

Tests used:
[1] = system: MAO-B; details: printed in Figure 2 (design strategy), no reference given; cited from earlier work
[2] = system: MAO-A; details: halogenated pyrazoline, no reference given; cited from earlier work
[3] = system: NF-kB; test: NF-kB expression in LPS-induced SH-SY5Y cells
[4] = system: GPx; test: Glutathione peroxidase (GPx) activity in LPS-induced SH-SY5Y cells; type: cell-based, human; details: 10 µM/mL
Source text: A GPx assay kit (KrishGen Biosystems) was used to evaluate the GPx activity. The kit uses a colorimetric assay to determine the quantity of GPx. Glutathione reductase (GR) mediates GPx activity Oxidized glutathione (GSSG) is produced via hydroperoxide reduction by GPx. This glutathione is recycled back to its reduced state by GR and NADPH. The NADPH to NADP + oxidation was accompanied by a decrease in absorbance at 450 nm (A450). When GPx activity was rate-limiting, the rate of decline in A450 was directly correlated with GPx activity. Following treatment, adherent cells were removed from the wells, suspended in cold PBS, sonicated, and frozen. In accordance with the ELISA kit’s instructions, the lysed cell supernatant, or standard, was applied to all 96 wells of a plate together with a diluted radical detector to assay the activity of GPx. A microplate reader was used to measure the absorbance of the wells after 5 min[46]–[49]. Results were obtained in ng/mL.

[5] = Parallel artificial membrane permeability assay (PAMPA), BBB; type: in vitro ADME
Experimental: The blood–brain barrier (BBB) permeation abilities of the four lead molecules were analyzed using the PAMPA method[44],[45]. The detailed procedure is explained in the Supplementary Data.
Using a microtiter plate with 96 wells and a Millipore filter plate with 96 wells (ipvh, 125 μm thick filter, 0.45 μm pore), which was then saturated with 0.1 mL of n-dodecane, a "sandwich" structure was created in PAMPA. Stock solutions of drug samples in DMSO were created at a 10 mM concentration. The stock solution was diluted in buffer at pH 7.4 before being added to a 96-well filter plate in order to achieve a final sample concentration (0.01, 0.1, and 1 mM) and keep the DMSO concentration at 1% (v/v). The final dilutions were divided into 270 μL for the donor wells and 200 μL of pH 7.4 buffer for the acceptor well. The donor plate was placed on the top of the acceptor filter plate to form a sandwich (comprising of a synthetic lipid membrane in the center, an aqueous receiver on […], and an aqueous donor carrying an analyte on the bottom.). The test substance diffuses from the donor well across the lipid membrane and into the acceptor well. The sandwich is said to have been intact when the penetration occurred. The drug concentration in the reference, donor, and receiver wells was measured using UV spectroscopy. The rate of penetration is calculated using the following expression.
Log Pe = -ln [1-CA /Equilibrium]/A× (1/VD + 1/VA) × t

[6] = system: ROS; test: ROS assay (DCF) in LPS-treated SH-SY5Y cells; type: cell-based, human
Experimental: (§1) Subcultures were performed every two days.
The OxiSelect Intracellular ROS Assay Kit (Cell Biolabs Inc., San Diego, CA, USA) was used to quantify the levels of the fluorescent probe 20,70-dichlorodihydrofluorescin diacetate (DCFH-DA).

[7] = system: CAT; test: Catalase (CAT) activity in LPS-induced SH-SY5Y cells; type: cell-based, human; details: 10 µM/mL
Experimental: as §1
CAT activity was determined according to Aebi[50]. A human CAT ELISA kit was purchased commercially (KrishGen Biosystems). Following treatment, the adherent cells were scraped off, suspended in cold PBS, sonicated, and placed on ice. The medium was then removed from each well. The 3 mL CAT assay combination comprised of extract (0.05 mL), phosphate buffer (1.5 mL, 100 mM buffer, pH 7.0), H2O2 (0.5 mL), and distilled water (0.95 mL). The absorbance decreased at 450 nm. CAT activity was reported in terms of ng/mL of H2O2 oxidized per min per gram[46]–[49].

[8] = target: T1, MAO-B (Homo sapiens, UniProt P27338); test: MAO-B inhibition assay (continuous, benzylamine)
T1 sequence (P27338 1-520): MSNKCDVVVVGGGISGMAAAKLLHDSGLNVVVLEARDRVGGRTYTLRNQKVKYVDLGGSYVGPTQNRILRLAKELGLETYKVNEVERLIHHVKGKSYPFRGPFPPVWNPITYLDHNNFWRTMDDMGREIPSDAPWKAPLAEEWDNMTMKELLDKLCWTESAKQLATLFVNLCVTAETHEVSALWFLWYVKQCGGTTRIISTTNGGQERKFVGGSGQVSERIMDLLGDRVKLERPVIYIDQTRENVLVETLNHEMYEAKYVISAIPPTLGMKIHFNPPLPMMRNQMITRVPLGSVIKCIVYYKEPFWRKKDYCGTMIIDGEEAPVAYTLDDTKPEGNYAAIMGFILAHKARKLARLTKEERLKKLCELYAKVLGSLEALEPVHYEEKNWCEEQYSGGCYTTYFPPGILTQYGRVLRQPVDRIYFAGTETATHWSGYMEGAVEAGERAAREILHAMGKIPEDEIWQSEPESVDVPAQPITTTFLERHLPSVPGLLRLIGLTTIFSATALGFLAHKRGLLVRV
Experimental: (§2) MAO-A and MAO-B activities were determined using 0.06 mM kynuramine and 0.3 mM benzylamine, respectively[39]. […] Concentrations of the substrates used were around 2.0 times of their Km values for the enzyme assay. The absorbance was measured using the continuous assay method described previously[40].
(§3) The selectivity index (SI) values of the compounds were calculated as follows: (IC50 of MAO-A)/(IC50 of MAO-B)[42].

[9] = system: SOD; test: Superoxide dismutase (SOD) activity in LPS-induced SH-SY5Y cells; type: cell-based, human; details: 10 µM/mL
Experimental: Using a superoxide dismutase assay kit (KrishGen Biosystems, India), which measures the concentration of formazan crystals using a colorimetric assay, SOD activity was determined. In this test, a tetrazolium salt was used to detect the superoxide radicals produced by xanthine oxidase and hypoxanthine. After treatment, the medium was removed, centrifuged at 2000 rpm for 5 min at room temperature, and placed on ice. A diluted radical detector and lysed cell supernatant or a standard were applied to each well of a 96-well plate to evaluate SOD activity using an ELISA kit, according to the manufacturer’s instructions. The absorbance of the wells was then determined after 5 min at a wavelength of 450 nm using a microplate reader (Safire2, Tecan Group Ltd., Maennedorf, Switzerland).

[10] = target: T2, MAO-A (Homo sapiens, UniProt P21397); test: Reversibility study by dialysis, MAO-A
T2 sequence (P21397 1-527): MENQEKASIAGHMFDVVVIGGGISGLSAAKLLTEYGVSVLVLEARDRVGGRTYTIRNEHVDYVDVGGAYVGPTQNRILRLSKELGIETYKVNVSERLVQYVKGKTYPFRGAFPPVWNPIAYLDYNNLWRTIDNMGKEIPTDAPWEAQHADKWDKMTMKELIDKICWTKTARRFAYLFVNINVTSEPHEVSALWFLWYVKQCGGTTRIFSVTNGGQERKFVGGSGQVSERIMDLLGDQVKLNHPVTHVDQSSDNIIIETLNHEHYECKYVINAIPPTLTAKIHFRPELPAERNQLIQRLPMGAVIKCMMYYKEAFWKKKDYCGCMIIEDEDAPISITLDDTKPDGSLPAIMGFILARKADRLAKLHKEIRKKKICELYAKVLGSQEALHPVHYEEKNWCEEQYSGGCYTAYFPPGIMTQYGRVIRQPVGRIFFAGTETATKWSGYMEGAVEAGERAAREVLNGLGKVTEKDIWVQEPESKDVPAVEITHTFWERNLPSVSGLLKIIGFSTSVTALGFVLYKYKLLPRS
Experimental: Reversibility test was performed by using Dialyzer DiaEasy™ (6–8 kDa, BioVision, St. Grove, MA, USA).

[11] = system: TNF-α; test: TNF-α expression in LPS-induced SH-SY5Y cells; type: cell-based, human; details: LPS 1 µg/mL 2 h, compound 24 h, SH-SY5Y
[12] = target: T2, MAO-A; test: MAO-A inhibition assay (continuous, kynuramine)
Experimental: as §2, §3

[13] = target: T2, MAO-A; test: Enzyme kinetics, Lineweaver-Burk and secondary plots, MAO-A
Experimental: Enzyme inhibition patterns and Ki values were determined by comparing Lineweaver–Burk (LB) plots and their secondary plots, respectively[40].

[14] = system: IL-6; test: IL-6 expression in LPS-induced SH-SY5Y cells; type: cell-based, human; details: LPS 1 µg/mL 2 h, compound 24 h, SH-SY5Y

In the case of `O=C1Nc2ccc(Cl)cc2/C1=N\NC(=O)c1ccc2c(c1)OCO2` [Compound 2A], the IC50 [1] is given as 0.089 µM.
For `CCOc1ccc(C2=NNC(c3ccc(Br)cc3)C2)cc1` (stereo not shown) [EH8], the IC50 [2] is given as 4.31 µM.
For `O=C1Nc2ccc(Cl)cc2/C1=N/NC(=O)c1ccc(Br)cc1` [IS15], the “NF-kB level vs LPS-treated group” value ([3]; LPS 1 µg/mL 2 h, compound 24 h, SH-SY5Y) was “significantly (p < 0.0001) reduced”, the “NF-kB expression compared to IS6 and IS7” value ([3]; LPS-treated cell lines) was “significantly lower” and the “GPx (cellular anti-oxidant enzyme) effect” value [4] was “enhancing the enzyme activity”. The “CNS/BBB permeability in words” value [5] was “high permeability and CNS bioavailability”, the “Prediction (CNS permeation class)” value [5] was “CNS+ (Pe (10^−6 cm/s) > 4.00: CNS + (high permeation))” and the “Experimental Pe” value ([5]; pH 7.4) was > 4 ×10⁻⁶ cm/s. For the same molecule, the Papp ([5]; pH 7.4, read-out: Experimental Pe) was 4.39 ± 0.3 ×10⁻⁶ cm/s, the “DCF intensity decrease at 10 µM” value ([6]; 10 µM/mL (10 µM), vs LPS-induced cells) was “effective DCF intensity decrease” and the “DCF expression (ROS) vs cells treated with LPS alone” value ([6]; LPS-induced SH-SY5Y) was “significantly inhibited (p < 0.0001)”. For the same molecule, the “CAT (cellular anti-oxidant enzyme) effect” value [7] was “enhancing the enzyme activity”, the IC50 [8] was 0.337 ± 0.007 µM and the “SI (selectivity index)” value ([8]; (IC50 of MAO-A)/(IC50 of MAO-B), MAO-B compared to MAO-A) was 5.50. The remaining activity at 10 µM ([8]; read-out: Residual activity at 10 µM (%) MAO-B) was 12.5 ± 3.64%, the “SOD (cellular anti-oxidant enzyme) effect” value [9] was “enhancing the enzyme activity” and the “Reversibility of MAO-A inhibition” value [10] was “reversible-type inhibitors”. For the same molecule, the “TNF-alpha level vs LPS-treated group” value [11] was “significantly (p < 0.0001) reduced”, the IC50 [12] was 1.85 ± 0.085 µM and the remaining activity at 10 µM ([12]; read-out: Residual activity at 10 µM (%) MAO-A) was 34.7 ± 0.71%. The “Fold higher MAO-A inhibition than IS7” value ([12]; relative to IS7) was 10.35 times, the “Fold higher MAO-A inhibition than IS13” value ([12]; relative to IS13) was 11.94 times and the Ki [13] was 1 ± 0.171 µM. The “Type of MAO-A inhibition” value ([13]; LB plot) was “competitive” and the “IL-6 level vs LPS-treated group” value [14] was “significantly (p < 0.0001) reduced”.
